Test in all cases: graphene oxide fluorescence desorption assay
Assay [1] concerns OA-08 (DNA, aptamer) CAGCTCAGAAGCTTGATCCTAGCCCGCCAACCTACATCATCTACACTTCGTTTTAACCTTGACTCGAAGTCGTGCATCTG
To be noted: 150 mM Na+, 2 mM Mg2+, binding buffer 50 mM Tris, pH 7.4; for binding: 1 μM compound tested, 150 nM aptamer.

Assay [2] has as its system OA-17 (DNA, aptamer) CAGCTCAGAAGCTTGATCCTTTCCCCAAACTGTTGCAACCTCTGCTTTCTTTCGCTATATGACTCGAAGTCGTGCATCTG
The settings on record: 150 mM Na+, 2 mM Mg2+, binding buffer 50 mM Tris, pH 7.4; for binding: 1 μM compound tested, 150 nM aptamer.

In assay [3] the test system is OA-27 (DNA, aptamer) CAGCTCAGAAGCTTGATCCTATTTGACCATGTCGAGGGAGACGCGCAGTCGCTACCACCTGACTCGAAGTCGTGCATCTG
To be noted: 150 mM Na+, 2 mM Mg2+, binding buffer 50 mM Tris, pH 7.4; for binding: 1 μM compound tested, 150 nM aptamer.

Assay [4] deals with OA27-1 (DNA, aptamer) ATTTGACCATGTCGAGGGAGACGCGCAGTCGCTACCACCT
The settings on record: 150 mM Na+, 2 mM Mg2+; binding buffer 50 mM Tris, pH 7.4; FAM-aptamer, GO separation.

Assay [5] has as its system OA-14 (DNA, aptamer) CAGCTCAGAAGCTTGATCCTATGCTTCGTGGGACAAGAGTTGACACATCGTCGTTAGGTTGACTCGAAGTCGTGCATCTG
To be noted: 150 mM Na+, 2 mM Mg2+; binding buffer 50 mM Tris, pH 7.4; 1 μM OA, 5–200 nM aptamer.

The test system of assay [6] is OA-01 (DNA, aptamer) CAGCTCAGAAGCTTGATCCTGCACACGAGTTACGCCCCATCGTTGTCCTTTCCCTCACGTGACTCGAAGTCGTGCATCTG
To be noted: 150 mM Na+, 2 mM Mg2+; binding buffer 50 mM Tris, pH 7.4; 1 μM OA, 5–200 nM aptamer.

Assay [7] has as its system OA-09 (DNA, aptamer) CAGCTCAGAAGCTTGATCCTTAGCACACAACCCTTTGATTGGGATATCTCATCCCTCGGACTCGAAGTCGTGCATCTG
The settings on record: 150 mM Na+, 2 mM Mg2+; binding buffer 50 mM Tris, pH 7.4; 1 μM OA, 5–200 nM aptamer.

Assay [8] concerns OA-22 (DNA, aptamer) CAGCTCAGAAGCTTGATCCTGGCCCCGATATGATTGCTATCATTCGCATCTGCTTCACTTGACTCGAAGTCGTGCATCTG
To be noted: 150 mM Na+, 2 mM Mg2+; binding buffer 50 mM Tris, pH 7.4; 1 μM OA, 5–200 nM aptamer.

Assay [9] concerns OA-21 (DNA, aptamer) CAGCTCAGAAGCTTGATCCTGGATGACCGTTGCAAGCGATCCATTGTTGTTTGATCATGTGACTCGAAGTCGTGCATCTG
The settings on record: 150 mM Na+, 2 mM Mg2+; binding buffer 50 mM Tris, pH 7.4; 1 μM OA, 5–200 nM aptamer.

With `C=C1[C@@H](O)[C@@H]2O[C@]3(CC[C@H](/C=C/[C@@H](C)[C@@H]4CC(C)=C[C@@]5(O[C@H](C[C@@](C)(O)C(=O)O)CC[C@H]5O)O4)O3)CC[C@H]2O[C@@H]1[C@@H](O)C[C@H](C)[C@@H]1CCC[C@@]2(OCCC[C@H]2C)O1`, the binding entry in assay [1] is listed as “yes”; in [2], “yes”; in assay [3], “no”.
Regarding `C/C(=C/C=C/[C@@H](C)C(=O)O)[C@H]1CN[C@H](C(=O)O)[C@H]1CC(=O)O`, in assay [3], the binding entry is listed as “no”.
On to `C=C1[C@@H](O)[C@@H]2O[C@]3(CC[C@H](/C=C/[C@@H](C)[C@@H]4CC(C)=C[C@@]5(O[C@H](C[C@@](C)(O)C(=O)O)CC[C@H]5O)O4)O3)CC[C@H]2O[C@@H]1[C@@H](O)C[C@H](C)[C@H]1O[C@@]2(CC[C@H]1C)OCCC[C@H]2C`, for which the values for the binding result in assay [1], in assay [2] and in assay [3] were “yes”, “yes” and “no”, respectively.
As a reminder, the Kd is the concentration at which binding is half-saturated. For `C=C1[C@@H](O)[C@@H]2O[C@]3(CC[C@H](/C=C/[C@@H](C)[C@@H]4CC(C)=C[C@@]5(O[C@H](C[C@@](C)(O)C(=O)O)CC[C@H]5O)O4)O3)CC[C@H]2O[C@@H]1[C@@H](O)C[C@H](C)[C@H]1O[C@@]2(CCCCO2)CC[C@H]1C`, the Kd turned out to be 40 nM in assay [4]; 88 ± 30 nM in assay [1] (1 μM OA, 5–200 nM aptamer); 79 ± 20 nM in [2] (1 μM OA, 5–200 nM aptamer); 1772 ± 543 nM in [5]; 125 ± 22 nM in [6]; 127 ± 39 nM in [7]. Further, the Kd in assay [8] was 70 ± 16 nM; in assay [3] (1 μM OA, 5–200 nM aptamer) it was 42 ± 4 nM; in [9], 118 ± 18 nM.

The values are drawn from article PMC4761938 (2016).
